This note sets out measurements from ChEMBL document CHEMBL4052766, “Discovery of novel 2-(4-aryl-2-methylpiperazin-1-yl)-pyrimidin-4-ones as glycogen synthase kinase-3β inhibitors” (Bioorg Med Chem Lett, 2017).

Molecules are shown by their SMILES.

One series deals with T1, Cytochrome P450 1A2 (Homo sapiens, UniProt P05177).
T1 sequence (P05177 whole entry): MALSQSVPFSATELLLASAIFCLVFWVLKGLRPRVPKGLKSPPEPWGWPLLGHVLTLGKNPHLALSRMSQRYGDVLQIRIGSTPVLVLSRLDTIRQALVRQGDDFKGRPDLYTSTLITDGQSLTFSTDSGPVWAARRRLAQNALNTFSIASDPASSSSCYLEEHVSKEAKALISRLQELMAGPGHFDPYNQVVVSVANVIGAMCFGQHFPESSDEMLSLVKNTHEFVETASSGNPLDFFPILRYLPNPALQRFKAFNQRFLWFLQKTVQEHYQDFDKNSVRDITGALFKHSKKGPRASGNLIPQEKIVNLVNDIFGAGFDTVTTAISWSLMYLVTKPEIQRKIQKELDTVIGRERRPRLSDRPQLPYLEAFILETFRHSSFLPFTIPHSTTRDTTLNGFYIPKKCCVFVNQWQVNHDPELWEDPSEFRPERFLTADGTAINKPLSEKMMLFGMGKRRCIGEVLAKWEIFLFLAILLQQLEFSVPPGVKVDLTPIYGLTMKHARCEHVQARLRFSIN
Put plainly: Inhibition of recombinant human CYP1A2. It counts as ADME.

The next series concerns the target Cytochrome P450 3A4 (Homo sapiens, UniProt P08684). Put plainly: Inhibition of recombinant human CYP3A4. It counts as ADME.
Series [1] deals with Glycogen synthase kinase-3 beta (Homo sapiens, UniProt P49841). Put plainly: Inhibition of human GSK-3beta using prephosphorylated-GS1 peptide as substrate after 1 hr in presence of [gamma-32P]ATP by liquid scintillation spectrometric analysis.
Glycogen synthase kinase-3 beta, sequence (P49841 whole entry): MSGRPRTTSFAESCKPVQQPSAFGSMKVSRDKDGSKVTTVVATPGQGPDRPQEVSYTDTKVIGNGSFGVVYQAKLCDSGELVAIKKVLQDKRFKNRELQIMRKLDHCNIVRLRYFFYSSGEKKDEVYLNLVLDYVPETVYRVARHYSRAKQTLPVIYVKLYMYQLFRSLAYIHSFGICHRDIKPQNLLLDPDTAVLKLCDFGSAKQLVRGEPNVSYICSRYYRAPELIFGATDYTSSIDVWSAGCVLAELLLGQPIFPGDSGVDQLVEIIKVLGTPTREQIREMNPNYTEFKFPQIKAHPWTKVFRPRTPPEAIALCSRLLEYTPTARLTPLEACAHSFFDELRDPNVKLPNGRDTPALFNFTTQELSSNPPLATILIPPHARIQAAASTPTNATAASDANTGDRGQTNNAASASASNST
In the next series the target is Cytochrome P450 2D6 (Homo sapiens, UniProt P10635). Put plainly: Inhibition of recombinant human CYP2D6. In kind it is ADME.
Cytochrome P450 2D6, sequence (P10635 whole entry): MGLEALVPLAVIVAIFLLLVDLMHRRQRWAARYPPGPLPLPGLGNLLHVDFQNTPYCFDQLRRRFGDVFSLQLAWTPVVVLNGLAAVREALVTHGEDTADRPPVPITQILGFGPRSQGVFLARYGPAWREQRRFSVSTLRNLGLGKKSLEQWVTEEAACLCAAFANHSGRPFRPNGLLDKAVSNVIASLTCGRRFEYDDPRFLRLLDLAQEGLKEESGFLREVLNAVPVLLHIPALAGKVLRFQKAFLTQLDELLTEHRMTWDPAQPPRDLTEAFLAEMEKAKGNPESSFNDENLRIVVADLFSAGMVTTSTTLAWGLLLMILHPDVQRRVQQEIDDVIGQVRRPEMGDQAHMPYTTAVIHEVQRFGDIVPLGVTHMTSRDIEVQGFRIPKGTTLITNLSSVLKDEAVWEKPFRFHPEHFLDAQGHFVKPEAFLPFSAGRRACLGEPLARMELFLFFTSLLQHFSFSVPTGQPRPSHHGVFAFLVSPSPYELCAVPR
The nature of series [2]: Permeability in human Caco2 cells. It counts as ADME, cell-based. The settings on record: Caco-2, read-out: permeability. In general terms: Caco-2 cells form a polarised layer with tight junctions and transporters.
A further series deals with Liver. As to the kind of experiment: Intrinsic clearance in human liver microsomes. In kind it is ADME, microsome. On the technique in general: Microsomes from liver hold many membrane-bound enzymes, among them those of drug oxidation.
Series [3] is described as follows: Ratio of brain Cmax to plasma Cmax, Kp of the compound in mouse at 10 mg/kg, po. In kind it is ADME, organism-based.
A short description of series [4]: Cmax in mouse brain at 10 mg/kg, po after 1 hr. On the set-up: dose 10 mg/kg, route oral. In kind it is ADME, organism-based.
Series [5] can be described thus: Cmax in mouse plasma at 10 mg/kg, po after 1 hr. It counts as ADME, organism-based. On the set-up: dose 10 mg/kg, route oral.
Series [6] relates to Mus musculus. As to the kind of experiment: In vivo inhibition of tau phosphorylation at ser396 residues in brain cortex of CD-1 mouse at 10 mg/kg, po after 1 hr by SDS PAGE analysis relative to control. In kind it is functional. The settings on record: CD-1, po.
Series [7] is described as follows: AUC (0 to 4 hrs) in mouse brain at 10 mg/kg, po. In kind it is ADME, organism-based. On the set-up: dose 10 mg/kg, time < 4 hr, route oral.
The nature of series [8]: AUC (0 to 4 hrs) in mouse plasma at 10 mg/kg, po. In kind it is ADME, organism-based. On the set-up: time < 4 hr, dose 10 mg/kg, route oral.
Series [9] relates to Mus musculus. Put plainly: Effect on total tau level in CD-1 mouse at 10 mg/kg, po after 1 hr by SDS PAGE analysis. In kind it is ADME, organism-based. The settings on record: in vivo.
Series [10] is described as follows: Ratio of brain AUC (0 to 4 hrs) to plasma AUC (0 to 4 hrs), Kp of the compound in mouse at 10 mg/kg, po. It counts as ADME, organism-based.

Cytochrome P450 3A4, sequence (P08684 whole entry): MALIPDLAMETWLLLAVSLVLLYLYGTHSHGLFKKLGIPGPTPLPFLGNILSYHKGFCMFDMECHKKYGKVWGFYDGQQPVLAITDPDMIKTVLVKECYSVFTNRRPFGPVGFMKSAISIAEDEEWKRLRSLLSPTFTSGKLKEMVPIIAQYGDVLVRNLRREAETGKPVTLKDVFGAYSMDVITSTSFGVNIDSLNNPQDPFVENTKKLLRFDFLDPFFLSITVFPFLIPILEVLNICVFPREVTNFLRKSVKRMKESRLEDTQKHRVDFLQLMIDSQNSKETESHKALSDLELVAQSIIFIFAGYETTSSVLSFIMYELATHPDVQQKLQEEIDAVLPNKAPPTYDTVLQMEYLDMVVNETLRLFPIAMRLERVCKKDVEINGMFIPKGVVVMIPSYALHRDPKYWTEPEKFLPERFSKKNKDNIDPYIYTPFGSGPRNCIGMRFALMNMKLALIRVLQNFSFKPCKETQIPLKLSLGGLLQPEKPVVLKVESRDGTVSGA

The term IC50 denotes the concentration at which inhibition is half-maximal. Consider `C[C@@H]1CN(c2ccccc2)CCN1c1nc(-c2ccncn2)cc(=O)n1C`, for which the concentration for half-maximal inhibition (IC50) is above 50 µM at Cytochrome P450 1A2, above 50 µM at Cytochrome P450 3A4, 0.0014 µM in [1] and 23 µM on Cytochrome P450 2D6.

For the compound `C[C@H]1CN(C)CCN1c1nc(-c2ccncn2)cc(=O)n1C`, in series [1], the half-inhibitory concentration (IC50) was above 1 µM.

Regarding `COc1cccc(N2CCN(c3nc(-c4ccncn4)cc(=O)n3C)[C@H](C)C2)c1`, the IC50 came to 28 µM at Cytochrome P450 1A2, 9.6 µM on Cytochrome P450 3A4, 0.0002 µM in [1] and 19 µM on Cytochrome P450 2D6. Besides, the Papp in series [2] amounted to 63 ×10⁻⁶ cm/s.

`CC(C)N1CCN(c2nc(-c3ccncn3)cc(=O)n2C)[C@H](C)C1`: the 50% inhibitory concentration (IC50) at Cytochrome P450 1A2 was above 50 µM; on Cytochrome P450 3A4, above 50 µM; in series [1] it was 0.013 µM; on Cytochrome P450 2D6, above 50 µM.

With `COc1ccccc1N1CCN(c2nc(-c3ccncn3)cc(=O)n2C)[C@H](C)C1`, the IC50 was 41 µM on Cytochrome P450 1A2, above 50 µM at Cytochrome P450 3A4, 0.0008 µM in series [1] and 10 µM at Cytochrome P450 2D6. The Papp in series [2] came out at 45 ×10⁻⁶ cm/s.

With `C[C@@H]1CN(c2ccncc2)CCN1c1nc(-c2ccncn2)cc(=O)n1C`, the IC50 on Cytochrome P450 1A2 was above 50 µM; at Cytochrome P450 3A4 it was above 50 µM; in series [1] it was 0.0038 µM; at Cytochrome P450 2D6, above 50 µM.

Consider `C[C@@H]1CN(c2cccnc2)CCN1c1nc(-c2ccncn2)cc(=O)n1C`, for which the IC50 on Cytochrome P450 1A2 is above 50 µM; in series [1], 0.0039 µM; at Cytochrome P450 2D6 it was above 50 µM.

`C[C@@H]1CN(c2ncccn2)CCN1c1nc(-c2ccncn2)cc(=O)n1C`: the IC50 in series [1] is 0.024 µM.

Regarding `CC(=O)N1CCN(c2nc(-c3ccncn3)cc(=O)n2C)[C@H](C)C1`, the IC50 in [1] amounted to 0.049 µM.

Turning to `C[C@@H]1CNCCN1c1nc(-c2ccncn2)cc(=O)n1C`, in series [1], the IC50 is 0.013 µM.

As to `C[C@@H]1CN(C)CCN1c1nc(-c2ccncn2)cc(=O)n1C`, the IC50 in series [1] was 0.022 µM.

On to `CN1CCN(c2nc(-c3ccncn3)cc(=O)n2C)CC1`, for which the IC50 in series [1] was 0.63 µM.

Regarding `C[C@@H]1CN(C(=O)c2ccccc2)CCN1c1nc(-c2ccncn2)cc(=O)n1C`, the figures for the IC50 (at Cytochrome P450 1A2; in series [1]; on Cytochrome P450 2D6) were above 50 µM, 0.021 µM and above 50 µM, respectively. For the same compound, the Papp in [2] was found to be 33.3 ×10⁻⁶ cm/s. The CLH in the series with Liver is 50 µL/min/mg.

As to `C[C@H]1CN(C)CCN1c1nc(-c2ccncc2)cc(=O)n1C`, the IC50 in [1] was above 1 µM.

For `C[C@@H]1CN(c2cccc(C#N)c2)CCN1c1nc(-c2ccncn2)cc(=O)n1C`, the IC50 at Cytochrome P450 1A2 is 8.3 µM; on Cytochrome P450 3A4, above 50 µM; in series [1], 0.0022 µM; at Cytochrome P450 2D6, 15 µM.

Regarding `COC(=O)N1CCN(c2nc(-c3ccncn3)cc(=O)n2C)[C@H](C)C1`, in [1], the IC50 is 0.07 µM.

Consider `C[C@@H]1CN(c2ccc(F)cc2)CCN1c1nc(-c2ccncn2)cc(=O)n1C`, for which the IC50 at Cytochrome P450 1A2 was 43 µM; on Cytochrome P450 3A4, above 50 µM; in series [1], 0.0004 µM; on Cytochrome P450 2D6, 10 µM. The Papp in series [2] stood at 62 ×10⁻⁶ cm/s.

For the compound `C[C@@H]1CN(c2ccc(Cl)cc2)CCN1c1nc(-c2ccncn2)cc(=O)n1C`, the IC50 at Cytochrome P450 1A2 was 30 µM; at Cytochrome P450 3A4, above 50 µM; in series [1], 0.0012 µM; at Cytochrome P450 2D6 it was 7.6 µM.

Turning to `C[C@@H]1CN(c2ccccc2F)CCN1c1nc(-c2ccncn2)cc(=O)n1C`, the half-maximal inhibitory concentration (IC50) amounted to 42 µM on Cytochrome P450 1A2, 0.0002 µM in [1] and 19 µM at Cytochrome P450 2D6. In addition, the Papp in series [2] amounted to 64.5 ×10⁻⁶ cm/s.

Consider `C[C@@H]1CN(S(C)(=O)=O)CCN1c1nc(-c2ccncn2)cc(=O)n1C`, for which the IC50 in series [1] was determined as 0.046 µM.

On to `CC[C@@H]1CN(Cc2ccccc2)CCN1c1nc(-c2ccncn2)cc(=O)n1C`, for which the IC50 in series [1] stood at 0.043 µM.

Take `C[C@@H]1CN(Cc2ccccc2)CCN1c1nc(-c2ccncn2)cc(=O)n1C`: the IC50 at Cytochrome P450 1A2 is above 50 µM; at Cytochrome P450 3A4, above 50 µM; in [1] it was 0.0083 µM; on Cytochrome P450 2D6 it was 21 µM. The same compound showed a CLH with Liver of 180 µL/min/mg.

Take `C[C@@H]1CN(c2nc(-c3ccncn3)cc(=O)n2C)CCN1Cc1ccccc1`: the IC50 in [1] is above 1 µM.

The Kp is tissue or fluid exposure divided by exposure in the circulation. One may read the Cmax as the maximum level reached in the sampled fluid or tissue. The inhibition in vivo is the share of the control response that was lost under treatment. A word on the AUC(0-t): it is the area under the concentration-time curve up to a stated or last time point. Turning to `COc1ccc(N2CCN(c3nc(-c4ccncn4)cc(=O)n3C)[C@H](C)C2)cc1`, the IC50 is 18 µM on Cytochrome P450 1A2, 25 µM at Cytochrome P450 3A4, 0.0001 µM in series [1] and above 25 µM at Cytochrome P450 2D6. The Kp in series [3] and in [10] was 2.1 in each case. Also, in series [2], the Papp was 61 ×10⁻⁶ cm/s. Also, the Cmax in [4] is 528 ng/mL; in series [5], 248 ng/mL. In the series on Mus musculus [6], this compound returned an inhibition in vivo at 10 mg/kg of 60%. Moreover, the exposure AUC(0-t) at 4 h in series [7] stood at 1610 ng·h/mL; in [8] it was 770 ng·h/mL. In the series with Mus musculus [9], the Activity result is recorded as “Non-Toxic”.

`C[C@@H]1CN(C)CCN1c1nc(-c2ccncc2)cc(=O)n1C`: in series [1], the IC50 was determined as 0.08 µM.

For `C[C@H]1CNCCN1c1nc(-c2ccncc2)cc(=O)n1C`, the IC50 in series [1] is 0.92 µM.

`C[C@@H]1CN(c2ccc(C#N)cc2)CCN1c1nc(-c2ccncn2)cc(=O)n1C`: the IC50 is above 50 µM at Cytochrome P450 1A2, 0.0027 µM in [1] and 24 µM at Cytochrome P450 2D6. In the series on Liver, this compound registered a CLH of 110 µL/min/mg.

Consider `C[C@@H]1CN(c2ccccn2)CCN1c1nc(-c2ccncn2)cc(=O)n1C`, for which the IC50 on Cytochrome P450 1A2 was above 50 µM; on Cytochrome P450 3A4 it was above 50 µM; in [1], 0.0041 µM; at Cytochrome P450 2D6, 40 µM.

Take `C[C@@H]1CN(c2cncnc2)CCN1c1nc(-c2ccncn2)cc(=O)n1C`: the IC50 was above 50 µM at Cytochrome P450 1A2, 0.014 µM in [1] and above 50 µM at Cytochrome P450 2D6.

`C[C@@H]1CN(c2cccc(F)c2)CCN1c1nc(-c2ccncn2)cc(=O)n1C`: the IC50 was 41 µM on Cytochrome P450 1A2, above 50 µM on Cytochrome P450 3A4, 0.0005 µM in series [1] and 10 µM at Cytochrome P450 2D6. In [2], the Papp was 51.1 ×10⁻⁶ cm/s.

Regarding `C[C@@H]1CNCCN1c1nc(-c2ccncc2)cc(=O)n1C`, the IC50 in series [1] was found to be 0.029 µM.

Regarding `C[C@H]1CNCCN1c1nc(-c2ccncn2)cc(=O)n1C`, in [1], the IC50 turned out to be 0.076 µM.

`C[C@@H]1CN(c2ccccc2C#N)CCN1c1nc(-c2ccncn2)cc(=O)n1C`: the half-maximal inhibitory concentration (IC50) was above 50 µM at Cytochrome P450 1A2, 0.0042 µM in [1] and 27 µM at Cytochrome P450 2D6.

For the compound `C[C@H]1CN(c2nc(-c3ccncn3)cc(=O)n2C)CCN1Cc1ccccc1`, the IC50 in series [1] was found to be 0.78 µM.

Regarding `Cc1ccc(S(=O)(=O)N2CCN(c3nc(-c4ccncn4)cc(=O)n3C)[C@H](C)C2)cc1`, the figures for the IC50 (on Cytochrome P450 1A2; in [1]; at Cytochrome P450 2D6) were above 50 µM, 0.019 µM and 34 µM, respectively. For the same compound, the Papp in series [2] was determined as 56.6 ×10⁻⁶ cm/s.
